Measured values reported in US12186303B2, “Feed additive for cattle comprising n-acetyl-l-tryptophan as active ingredient” (CJ CHEILJEDANG CORPORATION, priority 2018, dated 2025).

Legend:
Korean native steers = test: Serum hematological properties (biochemical autoanalyzer) under heat stress conditions; assay type: in vivo, Korean native cattle; design: GLO (globulin = TP − ALB) / BUN (blood urea nitrogen) / GLU (glucose) / NEFA (non-esterified fatty acid) / TG (triglyceride) / Na (sodium): unit not given here; conditions: for ALB (albumin) / BUN (blood urea nitrogen) / CPK (creatinine phosphokinase) / GLO (globulin = TP − ALB) / GLU (glucose) / K (potassium) / NEFA (non-esterified fatty acid) / Na (sodium) / TG (triglyceride) / TP (total protein): 0.1% NALT, serum
From the text: After grouping the animals by statistical analysis of initial body weights, the animals were bred in 1.0×1.5 m^2 individual pens during the experiment period. The feed was offered based on an amount of dry matter of daily total mixed ration (TMR) per head. After 7 days of an adaptation period for N-acetyl-L-tryptophan (NALT), a mixture of 0.1% N-acetyl-L-tryptophan (NALT) and the total mixed ration was fed to individual animals every morning at 8 a.m. for 6 weeks, and water was available ad libitum. Total amounts of L-tryptophan ingested by the control and the experimental group (NALT-treated group) by feeding NALT were 6.0 g/day/head and 18.2 g/day/head, respectively. The experiment was performed such that the NALT-treated group ingested 12.2 g/day/head more L-tryptophan than the control.
Meanwhile, results of growth performance analysis (body weight and average feed intake) and genetic analysis of loin tissue were obtained by statistically comparing and analyzing significant differences between the control and the NALT-treated group, and results of hematological analysis were obtained via statistical comparison and analysis depending on NALT treatment, experiment period (days), and interaction (treatment×days). These numerical values were expressed as average values, and a significance test was performed at the 5% level using Student's t-test by using a JMP 5.0 software package (SAS Institute Inc., Cary, NC, USA).
Blood samples were collected from a jugular vein of each sentinel animal before offering the feed at the starting day of the experiment (week 0), the mid-point of the experiment (week 5), and the final day of the experiment (week 10) and stored in a vacutainer (Becton Dickinson, Franklin Lakes, NJ, USA). Complete blood cell count (CBC) was performed using whole blood using a VetScan HM2 (Abaxis, Union City, CA, USA), and hematological properties were identified using serum with a biochemical autoanalyzer (FUJI DRI-CHEM 7000, Fujifilm, Tokyo, Japan). In addition, total protein (TP), albumin (ALB), creatinine phosphokinase (CPK), and blood urea nitrogen (BUN), which are related to blood protein metabolism, were analyzed; triglycerides (TG) and non-esterified fatty acid (NEFA), which are related to energy metabolism, were analyzed; and sodium (Na), chlorine (CI), and potassium (K), which are blood electrolytes, were analyzed.

[1] = system: genes related to fat differentiation (PPARr, CEBPa, FABP4, LPL, and SCD) and muscle differentiation (MYF6, MyoD, and MyoG) of the loin tissue; test: Real-time PCR of gene expression related to loin tissue development under heat stress conditions; assay type: in vivo, Korean native cattle
From the text: After grouping the animals by statistical analysis of initial body weights, the animals were bred in 1.0×1.5 m^2 individual pens during the experiment period. The feed was offered based on an amount of dry matter of daily total mixed ration (TMR) per head. After 7 days of an adaptation period for N-acetyl-L-tryptophan (NALT), a mixture of 0.1% N-acetyl-L-tryptophan (NALT) and the total mixed ration was fed to individual animals every morning at 8 a.m. for 6 weeks, and water was available ad libitum. Total amounts of L-tryptophan ingested by the control and the experimental group (NALT-treated group) by feeding NALT were 6.0 g/day/head and 18.2 g/day/head, respectively. The experiment was performed such that the NALT-treated group ingested 12.2 g/day/head more L-tryptophan than the control. Meanwhile, results of growth performance analysis (body weight and average feed intake) and genetic analysis of loin tissue were obtained by statistically comparing and analyzing significant differences between the control and the NALT-treated group, and results of hematological analysis were obtained via statistical comparison and analysis depending on NALT treatment, experiment period (days), and interaction (treatment×days). These numerical values were expressed as average values, and a significance test was performed at the 5% level using Student's t-test by using a JMP 5.0 software package (SAS Institute Inc., Cary, NC, USA). Samples of loin tissue of the sentinel animals were obtained on the final day of the experiment (week 10). The samples were obtained using a biopsy gun for animals (TNT Research Co., Ltd., Gyeonggi-do, Republic of Korea), added to a 2 mL tube, and incubated in liquid nitrogen gas. After extraction of RNA from each tissue sample, real-time PCR was conducted to analyze expression levels of genes related to fat differentiation (PPARr, CEBPa, FABP4, LPL, and SCD) and muscle differentiation (MYF6, MyoD, and MyoG) of the loin tissue of each animal. Total RNA was isolated using the TRIzol RNA isolation protocol, and the amount of RNA was measured using a NanoDrop 1000 (Thermo Scientific, Seoul, Republic of Korea). The RNA integrity (RIN) was estimated using an RNA Nano 6000 Assay Kit of the Agilent Bioanalyzer 2100 system (Agilent Technologies, Richardson, USA), and an obtained RNA integrity number (RIN) was 6.5±0.27. After synthesizing cDNA from mRNA, real-time PCR was conducted to measure expression levels of the genes.

[2] = 0.1% NALT, week 10, control = 1.00000

CC(=O)N[C@@H](Cc1c[nH]c2ccccc12)C(=O)O [NALT, N-acetyl-L-tryptophan]
Hematological analysis indicators (Table 14), effect of treatment with 0.1% NALT (Korean native steers): No statistically significant difference
ALB (albumin) (Korean native steers; Day 0): 3.3
BUN (blood urea nitrogen) (Korean native steers; Day 0): 16.7
CPK (creatinine phosphokinase) (Korean native steers; Day 0): 112
GLO (globulin = TP − ALB) (Korean native steers; Day 0): 2.8
GLU (glucose) (Korean native steers; Day 0): 49.6
K (potassium) (Korean native steers; Day 0): 4.7
NEFA (non-esterified fatty acid) (Korean native steers; Day 0): 139
Na (sodium) (Korean native steers; Day 0): 141.3
TG (triglyceride) (Korean native steers; Day 0): 25.5
TP (total protein) (Korean native steers; Day 0): 6.1
ALB (albumin) (Korean native steers; Day 35): 3.6
BUN (blood urea nitrogen) (Korean native steers; Day 35): 19.8
CPK (creatinine phosphokinase) (Korean native steers; Day 35): 267
GLO (globulin = TP − ALB) (Korean native steers; Day 35): 2.9
GLU (glucose) (Korean native steers; Day 35): 39.1
K (potassium) (Korean native steers; Day 35): 4.8
NEFA (non-esterified fatty acid) (Korean native steers; Day 35): 167
Na (sodium) (Korean native steers; Day 35): 142.6
TG (triglyceride) (Korean native steers; Day 35): 19.1
TP (total protein) (Korean native steers; Day 35): 6.5
ALB (albumin) (Korean native steers; Day 70): 3.5
BUN (blood urea nitrogen) (Korean native steers; Day 70): 18.5
CPK (creatinine phosphokinase) (Korean native steers; Day 70): 276
GLO (globulin = TP − ALB) (Korean native steers; Day 70): 2.9
GLU (glucose) (Korean native steers; Day 70): 56.3
K (potassium) (Korean native steers; Day 70): 4.9
NEFA (non-esterified fatty acid) (Korean native steers; Day 70): 168
Na (sodium) (Korean native steers; Day 70): 141.1
TG (triglyceride) (Korean native steers; Day 70): 22.1
TP (total protein) (Korean native steers; Day 70): 6.3
Gene expression level of SCD compared to the control [1]: tended to be higher
C/EBPα expression level in loin tissue [1, 2]: 0.8053
FABP4 expression level in loin tissue [1, 2]: 1.501
LPL expression level in loin tissue [1, 2]: 1.774
MYF6 expression level in loin tissue [1, 2]: 1.093
MyoD expression level in loin tissue [1, 2]: 1.045
MyoG expression level in loin tissue [1, 2]: 2.086
PPARγ expression level in loin tissue [1, 2]: 1.301
SCD expression level in loin tissue [1, 2]: 1.448
Expression levels of MYF6 and MyoG and of lipolysis/fat transport genes (FABP4 and LPL) in loin tissue compared to the control ([1]; p<0.05): higher
Expression of muscle differentiation-related gene (MyoD) and fat differentiation-related genes (C/EBPα and PPARγ) compared to the control ([1]; p>0.05): No statistically significant difference
